{
  "source": "patent US8680052B1",
  "about": "“Methods of treating, reducing the incidence of, and/or preventing ischemic events” (The Medicines Company, priority 2013, dated 2014)",
  "key": {"[1]": {"tested_on": "patients with atherosclerosis undergoing PCI", "type": "in vivo", "conditions": "human, in vivo, 48 h", "description": "The primary safety end point was severe bleeding not related to coronary-artery bypass grafting, according to the Global Use of Strategies to Open Occluded Coronary Arteries (GUSTO) criteria, at 48 hours. Several other bleeding definitions were also applied."}, "[2]": {"tested_on": "platelets", "assay": "Example 4: platelet activation measured by flow cytometry", "type": "in vivo, human", "conditions": "P-selectin expression, 1 μM ADP", "description": "The study involved 12 patients who met the criteria of being 18-75 years of age, having coronary artery disease (CAD) documented by a previous MI or coronary revascularization, and taking 81 mg of aspirin daily. […] Prohibited concomitant medications included strong and potent CYP3A inhibitors, simvastatin and lovastatin at doses more than 40 mg/day, omeprazole or esomeprazole, and digoxin. Use of non-steroidal anti-inflammatory agents was discouraged during study participation but not prohibited.\nEach patient was administered a 30 μg/kg bolus of cangrelor followed immediately by a 2 hr infusion at a rate of 4.0 μg/kg/min. A loading dose of ticagrelor (180 mg) was given after 0.5 hr or 1.25 hr (n=6 for each). Blood for pharmacodynamic platelet function studies was taken after 0.5 or 1.25 hr (corresponding to the time of ticagrelor load, n=6 for each), and then at 1.75, 2, 2.25, 2.5, 2.75, 3, 4, and 5.25 hr. Patients were assigned randomly to receive either 6 (n=6) or 7 (n=6) doses of ticagrelor to be taken every 12 hours following the discontinuation of the infusion of cangrelor. On study day 5, each patient was administered a 30 μg/kg bolus of cangrelor followed immediately by a 2 hr infusion at a rate of 4.0 μg/kg/min. Blood for pharmacodynamic assessment was taken after 1 and 2 hr. Adverse events were queried throughout study participation that ended with a telephone interview performed on study day 10-12.\nPharmacodynamic assessment included light transmission aggregometry (LTA), VerifyNow® P2Y12 assay, vasodilator-stimulated phosphoprotein (VASP) index, and platelet activation measured with the use of flow cytometry. Assessment of LTA, VerifyNow®, and platelet activation with the use of flow cytometry was performed within 30 min of blood being taken. In the case of flow cytometry, samples were processed to fixation and then batched for analysis. For VASP, index samples were batched and processed as recommended by the vendor within 2 h of blood being taken. This approach limited the time from fixation of VASP index to flow analysis to less than 1 h.\nLTA induced by 5 μM and 20 μM adenosine diphosphate (ADP) was quantified ex vivo (i.e. in non-adjusted platelet rich plasma). Platelet-poor plasma was set as 100% aggregation, and both maximal (peak) and terminal (at 300 s) aggregation were measured with a PAP4 aggregometer (BioData, Horsham, Pa.). VerifyNow® P2Y12 assay (Accumetrics Inc, San Diego, Calif.) that measures the effects of drugs on the P2Y12 receptor by activating platelets with prostaglandin El in addition to ADP was used in accordance with the instructions provided by the manufacturer. Platelet reactivity was expressed in P2Y12 reaction units (PRU). Activation of platelets was identified with the use of flow cytometry as previously described.^17. And to determine the VASP index, a commercially available kit (Diagnostica Stago, Inc, Parsippany NJ) was used. ^17 Schneider D J, Sobel B E. Streamlining the design of promising clinical trials: in-vitro testing of antithrombotic regimens and multiple agonists of platelet activation. Coron Artery Dis. 2009; 20:175-8."}, "[3]": {"conditions": "reference 5.25 h, Ticagrelor at 0.5 h"}, "[4]": {"conditions": "reference 5.25 h, Ticagrelor at 1.25 h"}},
  "data": [
    {"smiles": "COC(=O)[C@H](c1ccccc1Cl)N1CCc2sccc2C1", "note": "[Clopidogrel, clopidogrel, reference compound]", "values": [
      {"measurement": "Any blood transfusion", "setting": "[1]", "result": "16/5527 (0.3) number/total number (percent)"},
      {"measurement": "GUSTO-defined bleeding, primary safety end point: severe or life-threatening bleeding", "setting": "[1]", "result": "6/5527 (0.1) number/total number (percent)"},
      {"measurement": "GUSTO-defined moderate bleeding", "setting": "[1]", "result": "13/5527 (0.2) number/total number (percent)"},
      {"measurement": "GUSTO-defined severe or moderate bleeding", "setting": "[1]", "result": "19/5527 (0.3) number/total number (percent)"},
      {"measurement": "TIMI-defined major bleeding", "setting": "[1]", "result": "5/5527 (0.1) number/total number (percent)"},
      {"measurement": "TIMI-defined major or minor bleeding", "setting": "[1]", "result": "8/5527 (0.3) number/total number (percent)"},
      {"measurement": "TIMI-defined minor bleeding", "setting": "[1]", "result": "3/5527 (0.1) number/total number (percent)"},
      {"measurement": "adverse events that led to discontinuation of the study drug", "setting": "[1]", "result": 0.4, "unit": "%"},
      {"measurement": "rate of GUSTO-defined severe bleeding (primary safety end point)", "setting": "[1]", "result": 0.11, "unit": "%"},
      {"measurement": "rate of adverse events related to treatment", "setting": "[1]", "result": 19.1, "unit": "%"},
      {"measurement": "transient dyspnea", "setting": "[1]", "result": 0.3, "unit": "%"}
    ]},
    {"smiles": "CCCSc1nc(N[C@@H]2C[C@H]2c2ccc(F)c(F)c2)c2nnn([C@@H]3C[C@H](OCCO)[C@@H](O)[C@H]3O)c2n1", "note": "[ticagrelor]", "values": [
      {"measurement": "Flow Cytometry IPR", "setting": "[2]; 2.25 h, All", "result": "84 ± 8"},
      {"measurement": "Flow Cytometry PR", "setting": "[2]; 2.25 h, All", "result": "7.8 ± 3.7"},
      {"measurement": "Flow Cytometry IPR", "setting": "[2]; 2.25 h, Ticagrelor at 0.5 h", "result": "86 ± 8"},
      {"measurement": "Flow Cytometry PR", "setting": "[2]; 2.25 h, Ticagrelor at 0.5 h", "result": "7.5 ± 2.4"},
      {"measurement": "Flow Cytometry IPR", "setting": "[2]; 2.25 h, Ticagrelor at 1.25 h", "result": "83 ± 9"},
      {"measurement": "Flow Cytometry PR", "setting": "[2]; 2.25 h, Ticagrelor at 1.25 h", "result": "8 ± 4.9"},
      {"measurement": "Flow Cytometry IPR", "setting": "[2]; 2.5 h, All", "result": "67 ± 29"},
      {"measurement": "Flow Cytometry PR", "setting": "[2]; 2.5 h, All", "result": "14 ± 8.6"},
      {"measurement": "Flow Cytometry IPR", "setting": "[2]; 2.5 h, Ticagrelor at 0.5 h", "result": "81 ± 17"},
      {"measurement": "Flow Cytometry PR", "setting": "[2]; 2.5 h, Ticagrelor at 0.5 h", "result": "9.2 ± 5.9"},
      {"measurement": "Flow Cytometry IPR", "setting": "[2]; 2.5 h, Ticagrelor at 1.25 h", "result": "53 ± 34"},
      {"measurement": "Flow Cytometry PR", "setting": "[2]; 2.5 h, Ticagrelor at 1.25 h", "result": "19 ± 8.5"},
      {"measurement": "Flow Cytometry IPR", "setting": "[2]; 2.75 h, All", "result": "80 ± 17"},
      {"measurement": "Flow Cytometry PR", "setting": "[2]; 2.75 h, All", "result": "8.8 ± 5.6"},
      {"measurement": "Flow Cytometry IPR", "setting": "[2]; 2.75 h, Ticagrelor at 0.5 h", "result": "82 ± 13"},
      {"measurement": "Flow Cytometry PR", "setting": "[2]; 2.75 h, Ticagrelor at 0.5 h", "result": "9.3 ± 4.7"},
      {"measurement": "Flow Cytometry IPR", "setting": "[2]; 2.75 h, Ticagrelor at 1.25 h", "result": "79 ± 22"},
      {"measurement": "Flow Cytometry PR", "setting": "[2]; 2.75 h, Ticagrelor at 1.25 h", "result": "8.3 ± 6.9"},
      {"measurement": "Flow Cytometry IPR", "setting": "[2]; 3 h, All", "result": "86 ± 13"},
      {"measurement": "Flow Cytometry PR", "setting": "[2]; 3 h, All", "result": "6.5 ± 4.1"},
      {"measurement": "Flow Cytometry IPR", "setting": "[2]; 3 h, Ticagrelor at 0.5 h", "result": "87 ± 10"},
      {"measurement": "Flow Cytometry PR", "setting": "[2]; 3 h, Ticagrelor at 0.5 h", "result": "6.8 ± 2.9"},
      {"measurement": "Flow Cytometry IPR", "setting": "[2]; 3 h, Ticagrelor at 1.25 h", "result": "86 ± 16"},
      {"measurement": "Flow Cytometry PR", "setting": "[2]; 3 h, Ticagrelor at 1.25 h", "result": "6.2 ± 5.3"},
      {"measurement": "Flow Cytometry IPR", "setting": "[2]; 4 h, All", "result": "84 ± 15"},
      {"measurement": "Flow Cytometry PR", "setting": "[2]; 4 h, All", "result": "7.5 ± 6.2"},
      {"measurement": "Flow Cytometry IPR", "setting": "[2]; 4 h, Ticagrelor at 0.5 h", "result": "90 ± 4"},
      {"measurement": "Flow Cytometry PR", "setting": "[2]; 4 h, Ticagrelor at 0.5 h", "result": "5.5 ± 2.4"},
      {"measurement": "Flow Cytometry IPR", "setting": "[2]; 4 h, Ticagrelor at 1.25 h", "result": "78 ± 20"},
      {"measurement": "Flow Cytometry PR", "setting": "[2]; 4 h, Ticagrelor at 1.25 h", "result": "9.5 ± 8.2"},
      {"measurement": "Flow Cytometry IPR", "setting": "[2]; reference 5.25 h, All", "result": "91 ± 6"},
      {"measurement": "Flow Cytometry PR", "setting": "[2]; reference 5.25 h, All", "result": "5 ± 3.6"},
      {"measurement": "Flow Cytometry IPR", "setting": "[2]; [3]", "result": "91 ± 4"},
      {"measurement": "Flow Cytometry PR", "setting": "[2]; [3]", "result": "5.5 ± 3.9"},
      {"measurement": "Flow Cytometry IPR", "setting": "[2]; [4]", "result": "91 ± 7"},
      {"measurement": "Flow Cytometry PR", "setting": "[2]; [4]", "result": "4.5 ± 2"}
    ]}
  ]
}
